Data: patent US20240074996A1, “C5 KETONE COMPOSITIONS AND RELATED METHODS FOR TREATING METABOLIC DYSFUNCTION” (Keto Innovations, LLC, priority 2018, published 2024)
Where two headings read alike, the source gives them in different places.

Columns and labels:
[1] = cited from earlier work
[2] = Visual analog scale of well-being after BHP or BKP (Example 1); assay type: in vivo, human; details: scale 1-10, 10 g oral, 12 h fast
Procedure: (§1) Two (2) healthy, male subjects reported to the laboratory following a 12 hour overnight fast. Subjects were instructed to randomly consume either 10 grams of BHP or 10 grams BKP dissolved in 12 ounces of water. Subjects were then monitored for 150 minutes following drinking the mixture. Blood glucose, ketones, and visual analog scales (VAS) of well-being, energy, and focus were taken at 0, 30, 60, 90, 120, and 150 minutes. VAS scales consisted of a continuum of numbers from 1-10 with 1 being extremely low and 10 being extremely high.

[3] = Borg Rating of Perceived Exertion during cycling exercise (Example 2); assay type: in vivo, human; details: 10 grams
Source text: The purpose of this experiment was to see if C5 ketones could lower exertion during moderate and high intensity cycling exercise. Five (5) college aged males were given a placebo or BKP (10 grams) prior to and during 2-minute low, moderate and high intensity cycling bouts. […] Perceived exertion is how hard one feels like the body is working.

[4] = Blood ketones (BHB, Abbott Precision) after oral BHP or BKP (Example 1); assay type: in vivo, human; details: 10 g oral in water, 12 h fast
Procedure: as §1
(§2) Blood ketones were measured via finger prick using an Abbott Precision device which determines mMol of BHB. Blood glucose was measured using Abbott Precision glucose strips and was measured in mg/dL.

[5] = Visual analog scale of energy after BHP or BKP (Example 1); assay type: in vivo, human; details: scale 1-10, 10 g oral, 12 h fast
Procedure: as §1

[6] = Blood glucose after oral BHP or BKP (Example 1); assay type: in vivo, human; details: 10 g oral in water, 12 h fast
Procedure: as §1, §2

[7] = Visual analog scale of focus after BHP or BKP (Example 1); assay type: in vivo, human; details: scale 1-10, 10 g oral, 12 h fast
Procedure: as §1

CC[C@@H](O)CC(=O)O [(R)-B-hydroxypentanoate]
Utilisation after intravenous administration ([1]; nondiabetic animals, intravenous, doses corresponding to 75% of the energy requirement (Leclerc et al 1995)): very rapidly used

CCC(=O)CC(=O)O [BKP, β-ketopentanoate]
VAS of Well-Being ([2]; Combined, 0 min.): 6.5
VAS of Well-Being ([2]; Combined, 30 min.): 6.5
VAS of Well-Being ([2]; Combined, 60 min.): 7.5
VAS of Well-Being ([2]; Combined, 90 min.): 7.5
VAS of Well-Being ([2]; Combined, 120 min.): 8
VAS of Well-Being ([2]; Combined, 150 min.): 8
VAS of Well-Being ([2]; Subject 1, 0 min.): 7
VAS of Well-Being ([2]; Subject 1, 30 min.): 7
VAS of Well-Being ([2]; Subject 1, 60 min.): 9
VAS of Well-Being ([2]; Subject 1, 90 min.): 9
VAS of Well-Being ([2]; Subject 1, 120 min.): 9
VAS of Well-Being ([2]; Subject 1, 150 min.): 9
VAS of Well-Being ([2]; Subject 2, 0 min.): 6
VAS of Well-Being ([2]; Subject 2, 30 min.): 6
VAS of Well-Being ([2]; Subject 2, 60 min.): 6
VAS of Well-Being ([2]; Subject 2, 90 min.): 6
VAS of Well-Being ([2]; Subject 2, 120 min.): 7
VAS of Well-Being ([2]; Subject 2, 150 min.): 7
Utilisation after intravenous administration ([1]; in vivo, iv): very rapidly used
Metabolism and tolerance in animals ([1]; in vivo): well metabolized in animals without apparent intolerance
Rating of Perceived Exertion (RPE) High Intensity ([3]; college aged males, 2-minute cycling bout, High Intensity): 17 ± 2
Rating of Perceived Exertion (RPE) Low Intensity ([3]; college aged males, 2-minute cycling bout, Low Intensity): 9 ± 1
Rating of Perceived Exertion (RPE) Moderate Intensity ([3]; college aged males, 2-minute cycling bout, Moderate Intensity): 13 ± 2
Rating of Perceived Exertion (RPE) 30 min.-Post ([3]; college aged males, cycling, 30 min.-Post): 8 ± 1
Rating of Perceived Exertion (RPE) Baseline ([3]; college aged males, cycling, Baseline): 7 ± 1
Perceived exertion compared to a placebo ([3]; moderate and high intensity cycling): lower perceived exertion at both moderate and high intensity exercise
Blood ketone levels ([4]; Combined, 0 min.): 0.1 mmol
Blood ketone levels ([4]; Combined, 30 min.): 0.1 mmol
Blood ketone levels ([4]; Combined, 60 min.): 0.2 mmol
Blood ketone levels ([4]; Combined, 90 min.): 0.1 mmol
Blood ketone levels ([4]; Combined, 120 min.): 0.1 mmol
Blood ketone levels ([4]; Combined, 150 min.): 0.1 mmol
Blood ketone levels ([4]; Subject 1, 0 min.): 0.1 mmol
Blood ketone levels ([4]; Subject 1, 30 min.): 0.1 mmol
Blood ketone levels ([4]; Subject 1, 60 min.): 0.2 mmol
Blood ketone levels ([4]; Subject 1, 90 min.): 0.1 mmol
Blood ketone levels ([4]; Subject 1, 120 min.): 0.1 mmol
Blood ketone levels ([4]; Subject 1, 150 min.): 0.1 mmol
Blood ketone levels ([4]; Subject 2, 0 min.): 0.1 mmol
Blood ketone levels ([4]; Subject 2, 30 min.): 0.1 mmol
Blood ketone levels ([4]; Subject 2, 60 min.): 0.2 mmol
Blood ketone levels ([4]; Subject 2, 90 min.): 0.1 mmol
Blood ketone levels ([4]; Subject 2, 120 min.): 0.1 mmol
Blood ketone levels ([4]; Subject 2, 150 min.): 0.1 mmol
VAS of Energy ([5]; Combined, 0 min.): 6
VAS of Energy ([5]; Combined, 30 min.): 6.5
VAS of Energy ([5]; Combined, 60 min.): 7
VAS of Energy ([5]; Combined, 90 min.): 7
VAS of Energy ([5]; Combined, 120 min.): 7.5
VAS of Energy ([5]; Combined, 150 min.): 8
VAS of Energy ([5]; Subject 1, 0 min.): 7
VAS of Energy ([5]; Subject 1, 30 min.): 7
VAS of Energy ([5]; Subject 1, 60 min.): 7
VAS of Energy ([5]; Subject 1, 90 min.): 8
VAS of Energy ([5]; Subject 1, 120 min.): 8
VAS of Energy ([5]; Subject 1, 150 min.): 9
VAS of Energy ([5]; Subject 2, 0 min.): 5
VAS of Energy ([5]; Subject 2, 30 min.): 6
VAS of Energy ([5]; Subject 2, 60 min.): 7
VAS of Energy ([5]; Subject 2, 90 min.): 6
VAS of Energy ([5]; Subject 2, 120 min.): 7
VAS of Energy ([5]; Subject 2, 150 min.): 7
Blood glucose levels ([6]; Combined, 0 min.): 89.5 mg/dL
Blood glucose levels ([6]; Combined, 30 min.): 87.5 mg/dL
Blood glucose levels ([6]; Combined, 60 min.): 81 mg/dL
Blood glucose levels ([6]; Combined, 90 min.): 79.5 mg/dL
Blood glucose levels ([6]; Combined, 120 min.): 87.5 mg/dL
Blood glucose levels ([6]; Combined, 150 min.): 84 mg/dL
Blood glucose levels ([6]; Subject 1, 0 min.): 88 mg/dL
Blood glucose levels ([6]; Subject 1, 30 min.): 84 mg/dL
Blood glucose levels ([6]; Subject 1, 60 min.): 79 mg/dL
Blood glucose levels ([6]; Subject 1, 90 min.): 83 mg/dL
Blood glucose levels ([6]; Subject 1, 120 min.): 85 mg/dL
Blood glucose levels ([6]; Subject 1, 150 min.): 87 mg/dL
Blood glucose levels ([6]; Subject 2, 0 min.): 91 mg/dL
Blood glucose levels ([6]; Subject 2, 30 min.): 91 mg/dL
Blood glucose levels ([6]; Subject 2, 60 min.): 83 mg/dL
Blood glucose levels ([6]; Subject 2, 90 min.): 76 mg/dL
Blood glucose levels ([6]; Subject 2, 120 min.): 90 mg/dL
Blood glucose levels ([6]; Subject 2, 150 min.): 81 mg/dL
VAS of Focus ([7]; Combined, 0 min.): 5.5
VAS of Focus ([7]; Combined, 30 min.): 5.5
VAS of Focus ([7]; Combined, 60 min.): 6
VAS of Focus ([7]; Combined, 90 min.): 6.5
VAS of Focus ([7]; Combined, 120 min.): 7
VAS of Focus ([7]; Combined, 150 min.): 7
VAS of Focus ([7]; Subject 1, 0 min.): 6
VAS of Focus ([7]; Subject 1, 30 min.): 5
VAS of Focus ([7]; Subject 1, 60 min.): 7
VAS of Focus ([7]; Subject 1, 90 min.): 7
VAS of Focus ([7]; Subject 1, 120 min.): 7
VAS of Focus ([7]; Subject 1, 150 min.): 8
VAS of Focus ([7]; Subject 2, 0 min.): 5
VAS of Focus ([7]; Subject 2, 30 min.): 6
VAS of Focus ([7]; Subject 2, 60 min.): 5
VAS of Focus ([7]; Subject 2, 90 min.): 6
VAS of Focus ([7]; Subject 2, 120 min.): 7
VAS of Focus ([7]; Subject 2, 150 min.): 6
